Test results as given in ChEMBL document CHEMBL1201862, “PubChem BioAssay data set” (2004).
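Results reflect a 48-hour exposure of cells in 96-well plates to compound at five concentrations. Abbreviation: GI50, concentration required for 50% inhibition of growth.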 The source made the active and inactive calls. No stated cut-off is given here; in the data, active = GI50 up to about 1.1 µM and inactive = higher.

What was measured:
Test in all cases: DTP human tumour cell line panel, 48 h
786-0 = tested on: 786-0
A498 = tested on: A498
A549 = tested on: A549
CAKI-1 = tested on: CAKI-1
EKVX = tested on: EKVX
HOP-92 = tested on: HOP-92
K562 = tested on: K562
Malme-3M = tested on: Malme-3M
NCI-H226 = tested on: NCI-H226
NCI-H522 = tested on: NCI-H522
OVCAR-3 = tested on: OVCAR-3
SF-539 = tested on: SF-539
SK-MEL-28 = tested on: SK-MEL-28
U-251 = tested on: U-251
MOLT-4 = tested on: MOLT-4

Row | SMILES | GI50 (786-0) | GI50 (A498) | GI50 (A549) | GI50 (CAKI-1) | GI50 (EKVX) | GI50 (HOP-92) | GI50 (K562) | GI50 (Malme-3M) | GI50 (NCI-H226) | GI50 (NCI-H522) | GI50 (OVCAR-3) | GI50 (SF-539) | GI50 (SK-MEL-28) | GI50 (U-251) | GI50 (MOLT-4)
1 | CC(=O)Nc1ccc(C(=O)NN2C(=O)C(Cl)C2c2ccccc2O)cc1 (stereo not given) | 9.06 µM (inactive) | > 100 µM (inactive) | > 100 µM (inactive) | > 100 µM (inactive) | 99.8 µM (inactive) | 47.6 µM (inactive) | > 100 µM (inactive) | 82.2 µM (inactive) | > 100 µM (inactive) | 36.2 µM (inactive) | 3.26 µM (inactive) | 42.1 µM (inactive) | > 100 µM (inactive) | 15.8 µM (inactive) | –
2 | C/C=C/C#CC#C/C=C/C=C/C(O)CCO (stereo not given) | > 23.1 µM (inactive) | – | > 23.1 µM (inactive) | > 23.1 µM (inactive) | > 23.1 µM (inactive) | > 23.1 µM (inactive) | > 23.1 µM (inactive) | > 23.1 µM (inactive) | > 23.1 µM (inactive) | > 23.1 µM (inactive) | > 23.1 µM (inactive) | > 23.1 µM (inactive) | > 23.1 µM (inactive) | > 23.1 µM (inactive) | 17.5 µM (inactive)
3 | CCOC(=O)/C(=C/c1cccc(C#N)c1)N(CC)CC | > 100 µM (inactive) | > 100 µM (inactive) | > 100 µM (inactive) | > 100 µM (inactive) | > 100 µM (inactive) | > 100 µM (inactive) | > 100 µM (inactive) | > 100 µM (inactive) | > 100 µM (inactive) | > 100 µM (inactive) | – | > 100 µM (inactive) | > 100 µM (inactive) | > 100 µM (inactive) | > 100 µM (inactive)
4 | O=C(c1ccc(Cl)cc1)N(C(=S)N1CCN(c2ccccn2)CC1)c1ccccc1 | > 100 µM (inactive) | – | 94.2 µM (inactive) | > 100 µM (inactive) | – | > 100 µM (inactive) | 41.7 µM (inactive) | > 100 µM (inactive) | 24.9 µM (inactive) | > 100 µM (inactive) | 66.4 µM (inactive) | > 100 µM (inactive) | > 100 µM (inactive) | > 100 µM (inactive) | 43.6 µM (inactive)
5 | C=CCC(O)c1cc(OC)ccc1OC (stereo not given) | > 100 µM (inactive) | – | > 100 µM (inactive) | > 100 µM (inactive) | > 100 µM (inactive) | > 100 µM (inactive) | > 100 µM (inactive) | > 100 µM (inactive) | > 100 µM (inactive) | > 100 µM (inactive) | > 100 µM (inactive) | > 100 µM (inactive) | > 100 µM (inactive) | > 100 µM (inactive) | > 10 µM (inactive)
6 | COc1cc(C(=O)C/C(CCC(=O)Nc2ccc(Cl)cc2Cl)=N/Nc2nnc(C)n2N)ccc1O | > 100 µM (inactive) | 92.7 µM (inactive) | > 100 µM (inactive) | 45.9 µM (inactive) | 67.1 µM (inactive) | > 100 µM (inactive) | > 10 µM (inactive) | > 100 µM (inactive) | > 100 µM (inactive) | > 100 µM (inactive) | > 100 µM (inactive) | > 100 µM (inactive) | > 100 µM (inactive) | > 100 µM (inactive) | –
7 | C=CC/N=C1\NC(=O)C(CC(=O)Nc2ccc(C)cc2)S1 (stereo not given) | > 100 µM (inactive) | > 100 µM (inactive) | > 100 µM (inactive) | > 100 µM (inactive) | > 100 µM (inactive) | – | > 100 µM (inactive) | > 100 µM (inactive) | > 100 µM (inactive) | > 100 µM (inactive) | > 100 µM (inactive) | > 100 µM (inactive) | > 100 µM (inactive) | > 100 µM (inactive) | > 100 µM (inactive)
8 | c1ccc(CN2CCCCC(Sc3ccccc3)CC2)cc1 (stereo not given) | 16.8 µM (inactive) | > 100 µM (inactive) | 87.3 µM (inactive) | 26.9 µM (inactive) | 35.2 µM (inactive) | 28.5 µM (inactive) | 15.5 µM (inactive) | 19.1 µM (inactive) | 32.1 µM (inactive) | – | 33.9 µM (inactive) | 29.8 µM (inactive) | 45.3 µM (inactive) | 15.9 µM (inactive) | 20.8 µM (inactive)
9 | COc1cc2c([C@@H](OC(=O)c3ccccc3)c3ccc4c(c3)OCO4)nccc2c(OC)c1OC | > 100 µM (inactive) | 32.2 µM (inactive) | 17.3 µM (inactive) | 9.31 µM (inactive) | 43.6 µM (inactive) | 65.5 µM (inactive) | 24.9 µM (inactive) | 64.6 µM (inactive) | 23.5 µM (inactive) | 19.4 µM (inactive) | 25.6 µM (inactive) | 82.2 µM (inactive) | – | 61.7 µM (inactive) | 13.5 µM (inactive)
10 | C[C@]12CC(C#N)C(=O)C(O)=C1CC[C@@H]1C2CC[C@@]2(C)C1CC[C@@H]2O (stereo not given in full) | 22.9 µM (inactive) | 3.86 µM (inactive) | 47.5 µM (inactive) | – | 34.8 µM (inactive) | 10.7 µM (inactive) | 46.9 µM (inactive) | 31.1 µM (inactive) | 27.6 µM (inactive) | – | 65.5 µM (inactive) | 46.1 µM (inactive) | 40.9 µM (inactive) | > 100 µM (inactive) | 40.7 µM (inactive)
11 | COc1ccc(C2=NN(c3ccccc3)C[N+](c3ccc(C)cc3)=N2)cc1 | 43.6 µM (inactive) | 63 µM (inactive) | 59.7 µM (inactive) | – | 44.3 µM (inactive) | – | 14.6 µM (inactive) | 48.3 µM (inactive) | 55.3 µM (inactive) | 12.7 µM (inactive) | 23 µM (inactive) | – | 58.9 µM (inactive) | 20.6 µM (inactive) | 19.8 µM (inactive)
12 | CNC(SC)=C1C(=O)OC(C)(C)OC1=O | > 100 µM (inactive) | > 100 µM (inactive) | > 100 µM (inactive) | > 100 µM (inactive) | > 100 µM (inactive) | > 100 µM (inactive) | > 100 µM (inactive) | > 100 µM (inactive) | > 100 µM (inactive) | > 100 µM (inactive) | > 100 µM (inactive) | – | > 100 µM (inactive) | 18.1 µM (inactive) | > 100 µM (inactive)
13 | c1cncc(C2c3[nH]c4ccccc4c3CCN2CCN2CCCCC2)c1 (stereo not given) | > 100 µM (inactive) | 70.8 µM (inactive) | > 100 µM (inactive) | > 100 µM (inactive) | > 100 µM (inactive) | 30 µM (inactive) | 35.6 µM (inactive) | – | – | > 100 µM (inactive) | > 100 µM (inactive) | > 100 µM (inactive) | 46.7 µM (inactive) | > 100 µM (inactive) | > 100 µM (inactive)
14 | COC1C(OC(=O)c2ccc(C)[nH]2)C(O)C(Oc2ccc3c(O)c(NC(=O)c4c[nH]c(C(=O)Nc5c(O)c6ccc(OC7OC(C)(C)C(OC)C(OC(=O)c8ccc(C)[nH]8)C7O)c(C)c6oc5=O)c4C)c(=O)oc3c2C)OC1(C)C (stereo not given) | 2.1 µM (inactive) | 1.76 µM (inactive) | 3.39 µM (inactive) | 2.75 µM (inactive) | 3.82 µM (inactive) | 2.44 µM (inactive) | 2.84 µM (inactive) | 2.09 µM (inactive) | 1.96 µM (inactive) | – | 3.26 µM (inactive) | – | 0.475 µM (active) | 0.597 µM (active) | 0.857 µM (active)
15 | CC(O)c1ccc[n+](Cc2ccccc2)c1 (stereo not given) | > 400 µM (inactive) | – | > 400 µM (inactive) | > 400 µM (inactive) | > 400 µM (inactive) | > 400 µM (inactive) | > 400 µM (inactive) | > 400 µM (inactive) | > 400 µM (inactive) | > 400 µM (inactive) | > 400 µM (inactive) | > 400 µM (inactive) | > 400 µM (inactive) | > 400 µM (inactive) | > 400 µM (inactive)
16 | O=C1c2ccccc2C(=O)C2C3c4ccccc4C(c4ccccc43)C12 (stereo not given) | 5.45 µM (inactive) | – | 28.7 µM (inactive) | – | 14.7 µM (inactive) | – | 15.9 µM (inactive) | 13.1 µM (inactive) | 77.3 µM (inactive) | 31.3 µM (inactive) | 19.5 µM (inactive) | 12.5 µM (inactive) | 29.8 µM (inactive) | 31 µM (inactive) | 12.7 µM (inactive)
17 | NC(=O)N/N=C(/c1nc2ccc([N+](=O)[O-])cc2nc1O)C(O)c1ccco1 (stereo not given) | 97.5 µM (inactive) | – | 93.8 µM (inactive) | 61.7 µM (inactive) | – | > 100 µM (inactive) | 33.9 µM (inactive) | > 100 µM (inactive) | > 100 µM (inactive) | 14.7 µM (inactive) | > 100 µM (inactive) | 15.8 µM (inactive) | 96.6 µM (inactive) | 54.2 µM (inactive) | 94.6 µM (inactive)
18 | CCOC(=O)C(C(=O)OCC)S(C)(=O)=O | > 100 µM (inactive) | > 100 µM (inactive) | > 100 µM (inactive) | – | > 100 µM (inactive) | > 100 µM (inactive) | > 100 µM (inactive) | > 100 µM (inactive) | > 100 µM (inactive) | > 100 µM (inactive) | > 100 µM (inactive) | > 100 µM (inactive) | > 100 µM (inactive) | > 100 µM (inactive) | > 100 µM (inactive)
19 | COC(=O)c1cc2cc(OC)c(OC)cc2cc(C(=O)OC)c1=O | > 100 µM (inactive) | > 100 µM (inactive) | > 100 µM (inactive) | > 100 µM (inactive) | > 100 µM (inactive) | > 100 µM (inactive) | > 100 µM (inactive) | > 100 µM (inactive) | – | > 100 µM (inactive) | > 100 µM (inactive) | > 100 µM (inactive) | – | > 100 µM (inactive) | > 100 µM (inactive)
20 | O=c1[nH][nH]c(=O)[nH]1 | > 100 µM (inactive) | – | > 100 µM (inactive) | > 100 µM (inactive) | > 100 µM (inactive) | > 100 µM (inactive) | > 100 µM (inactive) | > 100 µM (inactive) | > 100 µM (inactive) | > 100 µM (inactive) | > 100 µM (inactive) | > 100 µM (inactive) | > 100 µM (inactive) | > 100 µM (inactive) | > 100 µM (inactive)
